Assay type in all cases: functional
Assay [1] concerns MCF7. The assay is described as follows: Cytotoxicity against human MCF7 cells assessed as growth at 100 uM after 48 hrs by SRB protein assay relative to control. To be noted: MCF7, 48 h, read-out: Activity. (In general: Sulforhodamine B stains cellular protein and so reports cell mass.)
Assay [2] concerns NCI-H460. The assay is described as follows: Cytotoxicity against human […] cells assessed as growth at 100 uM after 48 hrs by SRB protein assay relative to control. The following applies: NCI-H460, 48 h, read-out: Activity.
Assay [3] relates to SF-268. The assay is described as follows: Cytotoxicity against human SF268 cells assessed as growth at 100 uM after 48 hrs by SRB protein assay relative to control. To be noted: SF-268, 48 h, read-out: Activity.

For `COc1ccc(/C=N/NC(=O)Cc2csc3nc(-c4ccc(Br)cc4)cn23)cc1`, the growth at 100 µM is 46% in assay [1], 34% in assay [2] and 56% in assay [3].

Consider `CN(C)c1ccc(/C=N/NC(=O)Cc2csc3nc(-c4ccc(Br)cc4)cn23)cc1`, for which the growth at 100 µM turned out to be 82% in assay [1], 69% in assay [2] and 77% in assay [3].

Take `O=C(Cc1csc2nc(-c3ccc(Br)cc3)cn12)N/N=C/c1ccc(F)cc1`: the growth at 100 µM in assay [1] came to 71%; in assay [2], 35%; in assay [3], 84%.

Take `O=C(Cc1csc2nc(-c3ccc(Br)cc3)cn12)N/N=C/c1ccc(Br)cc1`: the growth at 100 µM in assay [1] stood at 56%; in assay [2], 75%; in assay [3], 107%.

Values taken from ChEMBL document CHEMBL1143799, “Synthesis and primary cytotoxicity evaluation of new imidazo[2,1-b]thiazole derivatives” (2007).
